# Assay results: ChEMBL document CHEMBL5653631, “A Potent and Selective ULK1 Inhibitor Suppresses Autophagy and Sensitizes Cancer Cells to Nutrient Stress” (iScience, 2018)
# Columns and labels:
# [1] = target: Cyclin-dependent kinase 1 (Homo sapiens) (UniProt P06493); assay: Inhibition of human recombinant CDC2 at 40 nM in presence of ATP by radiometric assay relative to control
# [2] = target: T1, Serine/threonine-protein kinase DCLK2 (Homo sapiens) (UniProt Q8N568); assay: Inhibition of human recombinant DCAMKL2 at 40 nM related to control ULK1
# T1 sequence (whole entry): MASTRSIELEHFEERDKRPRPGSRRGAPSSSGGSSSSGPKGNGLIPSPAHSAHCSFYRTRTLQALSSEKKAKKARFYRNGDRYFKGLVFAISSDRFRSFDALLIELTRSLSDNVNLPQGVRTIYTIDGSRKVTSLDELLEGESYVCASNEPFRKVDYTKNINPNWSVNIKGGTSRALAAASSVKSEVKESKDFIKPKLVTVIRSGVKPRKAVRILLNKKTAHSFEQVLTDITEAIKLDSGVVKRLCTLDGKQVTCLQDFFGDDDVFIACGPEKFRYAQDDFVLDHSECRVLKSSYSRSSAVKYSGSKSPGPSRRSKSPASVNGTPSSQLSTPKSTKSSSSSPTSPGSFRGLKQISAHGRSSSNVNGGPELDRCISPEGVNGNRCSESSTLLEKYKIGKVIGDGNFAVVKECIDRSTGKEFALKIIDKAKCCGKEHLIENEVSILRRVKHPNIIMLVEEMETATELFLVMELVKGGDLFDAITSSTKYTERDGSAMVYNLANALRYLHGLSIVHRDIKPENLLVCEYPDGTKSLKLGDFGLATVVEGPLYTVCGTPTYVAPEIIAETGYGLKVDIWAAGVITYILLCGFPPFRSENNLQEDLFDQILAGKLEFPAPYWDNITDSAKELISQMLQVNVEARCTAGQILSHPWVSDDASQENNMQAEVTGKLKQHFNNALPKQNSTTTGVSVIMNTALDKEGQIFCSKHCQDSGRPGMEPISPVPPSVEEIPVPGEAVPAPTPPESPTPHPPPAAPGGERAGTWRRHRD
# [3] = target: T1, Serine/threonine-protein kinase DCLK2 (Homo sapiens); assay: Inhibition of human recombinant DCAMKL2 at 40 nM in presence of ATP by radiometric assay relative to control
# [4] = target: Serine/threonine-protein kinase 32B (Homo sapiens) (UniProt Q9NY57); assay: Inhibition of human recombinant YANK2 at 40 nM in presence of ATP by radiometric assay relative to control
# Chain of Serine/threonine-protein kinase 32B (Homo sapiens) (Q9NY57 whole entry): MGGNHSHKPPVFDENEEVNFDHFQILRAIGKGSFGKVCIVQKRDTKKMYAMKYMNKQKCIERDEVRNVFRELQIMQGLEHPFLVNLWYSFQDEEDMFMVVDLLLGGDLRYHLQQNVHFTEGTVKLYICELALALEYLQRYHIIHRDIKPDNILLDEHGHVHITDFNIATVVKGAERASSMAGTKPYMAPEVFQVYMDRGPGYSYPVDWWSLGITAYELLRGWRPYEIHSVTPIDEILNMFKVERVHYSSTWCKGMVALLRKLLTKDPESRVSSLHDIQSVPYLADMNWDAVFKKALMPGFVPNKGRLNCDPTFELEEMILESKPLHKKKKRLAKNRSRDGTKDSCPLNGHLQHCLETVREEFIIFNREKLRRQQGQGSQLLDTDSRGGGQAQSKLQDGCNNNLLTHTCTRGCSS
# [5] = target: Serine/threonine-protein kinase WNK3 (Homo sapiens) (UniProt Q9BYP7); assay: Inhibition of human recombinant Wnk3 at 40 nM related to control ULK1
# [6] = target: Serine/threonine-protein kinase 32A (Homo sapiens) (UniProt Q8WU08); assay: Inhibition of human recombinant YANK1 at 15 nM related to control ULK1
# Chain of Serine/threonine-protein kinase 32A (Homo sapiens) (Q8WU08 whole entry): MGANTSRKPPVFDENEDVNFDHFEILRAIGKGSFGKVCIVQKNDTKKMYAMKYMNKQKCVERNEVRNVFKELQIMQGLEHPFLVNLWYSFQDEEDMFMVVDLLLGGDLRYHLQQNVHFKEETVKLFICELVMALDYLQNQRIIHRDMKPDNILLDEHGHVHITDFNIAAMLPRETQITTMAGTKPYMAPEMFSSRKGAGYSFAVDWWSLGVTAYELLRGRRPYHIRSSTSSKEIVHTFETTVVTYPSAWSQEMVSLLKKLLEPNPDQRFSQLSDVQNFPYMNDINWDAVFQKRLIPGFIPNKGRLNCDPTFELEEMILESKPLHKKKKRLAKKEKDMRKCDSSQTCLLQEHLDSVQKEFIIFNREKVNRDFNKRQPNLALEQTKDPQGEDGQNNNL
# [7] = target: Maternal embryonic leucine zipper kinase (Homo sapiens) (UniProt Q14680); assay: Inhibition of human recombinant MELK at 15 nM in presence of ATP by radiometric assay relative to control
# Chain of Maternal embryonic leucine zipper kinase (Homo sapiens) (Q14680 whole entry, looked up): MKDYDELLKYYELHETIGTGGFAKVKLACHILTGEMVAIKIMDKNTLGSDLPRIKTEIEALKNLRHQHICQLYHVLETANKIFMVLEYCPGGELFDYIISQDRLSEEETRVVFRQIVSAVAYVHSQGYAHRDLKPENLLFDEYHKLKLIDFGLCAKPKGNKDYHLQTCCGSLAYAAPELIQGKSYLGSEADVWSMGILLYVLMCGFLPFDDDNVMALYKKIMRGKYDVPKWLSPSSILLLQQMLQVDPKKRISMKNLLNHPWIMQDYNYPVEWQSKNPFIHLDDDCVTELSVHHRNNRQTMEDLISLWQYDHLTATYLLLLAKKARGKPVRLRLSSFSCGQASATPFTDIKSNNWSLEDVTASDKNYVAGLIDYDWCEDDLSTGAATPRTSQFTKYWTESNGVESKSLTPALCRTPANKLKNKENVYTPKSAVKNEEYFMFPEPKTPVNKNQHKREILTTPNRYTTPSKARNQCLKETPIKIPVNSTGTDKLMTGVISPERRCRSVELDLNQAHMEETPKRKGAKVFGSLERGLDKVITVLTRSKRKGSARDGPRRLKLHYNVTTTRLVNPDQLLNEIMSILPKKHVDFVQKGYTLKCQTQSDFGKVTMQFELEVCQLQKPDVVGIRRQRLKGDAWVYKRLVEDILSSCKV
# [8] = target: Ribosomal protein S6 kinase alpha-4 (Homo sapiens) (UniProt O75676); assay: Inhibition of human recombinant MSK2 at 15 nM related to control ULK1
# [9] = target: Tyrosine-protein kinase Fyn (Homo sapiens) (UniProt P06241); assay: Inhibition of human recombinant FYN at 15 nM in presence of ATP by radiometric assay relative to control
# Chain of Tyrosine-protein kinase Fyn (Homo sapiens) (P06241 2-537 limits assumed): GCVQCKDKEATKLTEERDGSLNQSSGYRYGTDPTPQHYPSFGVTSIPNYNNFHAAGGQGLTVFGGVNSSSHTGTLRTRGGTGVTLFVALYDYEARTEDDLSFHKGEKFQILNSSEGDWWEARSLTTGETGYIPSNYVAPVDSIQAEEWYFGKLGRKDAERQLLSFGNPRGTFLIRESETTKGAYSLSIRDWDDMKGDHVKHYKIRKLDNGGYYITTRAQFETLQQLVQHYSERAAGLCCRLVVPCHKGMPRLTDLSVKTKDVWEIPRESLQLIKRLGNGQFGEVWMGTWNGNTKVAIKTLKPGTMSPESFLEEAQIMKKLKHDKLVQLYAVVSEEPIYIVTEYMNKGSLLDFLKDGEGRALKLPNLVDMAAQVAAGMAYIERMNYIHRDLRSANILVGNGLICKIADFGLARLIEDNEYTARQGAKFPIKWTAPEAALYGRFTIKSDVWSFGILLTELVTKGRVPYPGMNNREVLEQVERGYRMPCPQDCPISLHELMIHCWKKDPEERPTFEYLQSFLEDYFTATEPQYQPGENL
# [10] = target: T2, Protein kinase C zeta type (Homo sapiens) (UniProt Q05513); assay: Inhibition of human recombinant PKCz at 15 nM in presence of ATP by radiometric assay relative to control
# T2 sequence (whole entry): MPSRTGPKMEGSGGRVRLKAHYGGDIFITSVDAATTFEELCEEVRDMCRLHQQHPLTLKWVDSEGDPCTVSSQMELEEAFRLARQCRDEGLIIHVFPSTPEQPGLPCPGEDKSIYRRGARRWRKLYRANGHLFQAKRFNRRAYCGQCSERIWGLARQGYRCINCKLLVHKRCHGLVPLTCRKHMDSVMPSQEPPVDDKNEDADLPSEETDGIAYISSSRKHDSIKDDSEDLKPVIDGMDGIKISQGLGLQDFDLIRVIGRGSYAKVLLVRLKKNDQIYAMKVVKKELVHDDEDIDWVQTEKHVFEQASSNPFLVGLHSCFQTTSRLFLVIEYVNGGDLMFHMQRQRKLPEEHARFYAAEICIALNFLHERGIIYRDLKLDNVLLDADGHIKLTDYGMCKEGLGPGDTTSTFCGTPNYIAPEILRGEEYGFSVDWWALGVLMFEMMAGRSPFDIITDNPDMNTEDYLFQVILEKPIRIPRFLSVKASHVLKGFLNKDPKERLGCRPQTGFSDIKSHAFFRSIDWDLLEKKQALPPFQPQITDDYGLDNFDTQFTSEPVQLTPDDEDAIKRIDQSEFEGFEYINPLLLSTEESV
# [11] = target: Calcium/calmodulin-dependent protein kinase kinase 1 (Homo sapiens) (UniProt Q8N5S9); assay: Inhibition of human recombinant CaMKK1 at 500 nM in presence of ATP by radiometric assay relative to control
# Chain of Calcium/calmodulin-dependent protein kinase kinase 1 (Homo sapiens) (Q8N5S9 whole entry, looked up): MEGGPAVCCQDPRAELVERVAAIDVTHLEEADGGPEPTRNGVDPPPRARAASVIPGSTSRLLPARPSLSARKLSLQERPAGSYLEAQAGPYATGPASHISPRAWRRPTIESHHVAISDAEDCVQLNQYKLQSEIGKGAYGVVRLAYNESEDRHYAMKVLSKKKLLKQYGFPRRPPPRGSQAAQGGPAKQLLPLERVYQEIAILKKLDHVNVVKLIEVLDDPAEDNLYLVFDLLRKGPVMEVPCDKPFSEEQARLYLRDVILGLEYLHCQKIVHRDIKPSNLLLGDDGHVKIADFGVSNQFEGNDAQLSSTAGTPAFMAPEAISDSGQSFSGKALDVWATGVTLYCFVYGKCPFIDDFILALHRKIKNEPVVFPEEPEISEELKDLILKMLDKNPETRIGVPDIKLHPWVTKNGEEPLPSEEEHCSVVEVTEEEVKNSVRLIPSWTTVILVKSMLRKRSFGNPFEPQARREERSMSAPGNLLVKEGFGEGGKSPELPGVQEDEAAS
# [12] = target: Mitogen-activated protein kinase 10 (Homo sapiens) (UniProt P53779); assay: Inhibition of human recombinant JNK3 at 500 nM related to control ULK1
# [13] = target: Vascular endothelial growth factor receptor 2 (Homo sapiens) (UniProt P35968); assay: Inhibition of human recombinant KDR at 500 nM related to control ULK1
# Chain of Vascular endothelial growth factor receptor 2 (Homo sapiens) (P35968 whole entry): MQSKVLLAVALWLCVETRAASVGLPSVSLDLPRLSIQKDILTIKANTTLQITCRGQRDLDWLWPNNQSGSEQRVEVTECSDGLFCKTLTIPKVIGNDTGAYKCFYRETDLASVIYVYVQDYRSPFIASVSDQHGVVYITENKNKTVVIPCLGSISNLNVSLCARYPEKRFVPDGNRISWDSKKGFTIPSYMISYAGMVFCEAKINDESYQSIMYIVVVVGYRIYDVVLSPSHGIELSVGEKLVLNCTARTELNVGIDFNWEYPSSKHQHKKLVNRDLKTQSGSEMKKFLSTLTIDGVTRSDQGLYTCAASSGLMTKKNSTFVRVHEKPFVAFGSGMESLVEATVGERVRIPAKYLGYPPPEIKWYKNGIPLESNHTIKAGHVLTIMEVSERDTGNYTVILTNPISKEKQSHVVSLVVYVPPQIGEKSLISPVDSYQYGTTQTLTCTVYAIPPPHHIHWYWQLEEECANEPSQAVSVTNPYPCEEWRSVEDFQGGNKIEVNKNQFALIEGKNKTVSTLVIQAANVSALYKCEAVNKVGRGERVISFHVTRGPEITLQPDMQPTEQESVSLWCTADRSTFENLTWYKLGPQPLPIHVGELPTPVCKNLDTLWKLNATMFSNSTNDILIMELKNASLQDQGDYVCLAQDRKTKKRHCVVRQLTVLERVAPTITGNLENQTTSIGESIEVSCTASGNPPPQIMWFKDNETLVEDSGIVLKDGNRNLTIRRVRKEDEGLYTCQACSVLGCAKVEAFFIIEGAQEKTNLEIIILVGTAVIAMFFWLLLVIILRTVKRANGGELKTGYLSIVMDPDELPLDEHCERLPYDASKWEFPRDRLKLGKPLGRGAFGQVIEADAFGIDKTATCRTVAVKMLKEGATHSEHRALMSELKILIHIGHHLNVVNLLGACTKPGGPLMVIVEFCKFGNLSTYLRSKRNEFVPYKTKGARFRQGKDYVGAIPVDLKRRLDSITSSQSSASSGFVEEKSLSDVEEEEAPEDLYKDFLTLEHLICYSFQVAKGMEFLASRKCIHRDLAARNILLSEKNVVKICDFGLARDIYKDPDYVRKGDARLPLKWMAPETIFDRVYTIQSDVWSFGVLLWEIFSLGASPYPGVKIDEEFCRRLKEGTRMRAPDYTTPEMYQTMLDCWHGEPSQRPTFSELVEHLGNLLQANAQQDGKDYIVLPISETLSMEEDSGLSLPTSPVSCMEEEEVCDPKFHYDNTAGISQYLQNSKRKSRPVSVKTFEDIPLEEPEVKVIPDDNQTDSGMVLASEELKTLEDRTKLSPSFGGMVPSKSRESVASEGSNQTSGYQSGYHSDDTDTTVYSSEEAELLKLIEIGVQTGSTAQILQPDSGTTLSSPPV
# [14] = target: Serine/threonine-protein kinase 33 (Homo sapiens) (UniProt Q9BYT3); assay: Inhibition of human recombinant STK33 at 500 nM related to control ULK1
# Chain of Serine/threonine-protein kinase 33 (Homo sapiens) (Q9BYT3 whole entry, looked up): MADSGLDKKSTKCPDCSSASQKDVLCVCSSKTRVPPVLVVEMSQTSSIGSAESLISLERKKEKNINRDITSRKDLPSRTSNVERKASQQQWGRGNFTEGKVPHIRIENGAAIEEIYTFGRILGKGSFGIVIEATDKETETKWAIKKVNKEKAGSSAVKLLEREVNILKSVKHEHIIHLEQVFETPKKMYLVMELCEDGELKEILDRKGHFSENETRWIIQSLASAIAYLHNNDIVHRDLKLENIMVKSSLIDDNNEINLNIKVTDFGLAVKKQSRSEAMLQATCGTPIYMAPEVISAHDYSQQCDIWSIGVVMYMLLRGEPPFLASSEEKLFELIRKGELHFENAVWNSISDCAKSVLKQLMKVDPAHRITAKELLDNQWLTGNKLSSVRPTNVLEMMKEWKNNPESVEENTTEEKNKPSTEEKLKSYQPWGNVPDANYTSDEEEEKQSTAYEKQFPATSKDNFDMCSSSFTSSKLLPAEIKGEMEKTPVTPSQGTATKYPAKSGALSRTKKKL
# [15] = target: Serine/threonine-protein kinase tousled-like 2 (Homo sapiens) (UniProt Q86UE8); assay: Inhibition of human recombinant TLK2 at 500 nM related to control ULK1
# Chain of Cyclin-dependent kinase 1 (Homo sapiens) (P06493 whole entry, looked up): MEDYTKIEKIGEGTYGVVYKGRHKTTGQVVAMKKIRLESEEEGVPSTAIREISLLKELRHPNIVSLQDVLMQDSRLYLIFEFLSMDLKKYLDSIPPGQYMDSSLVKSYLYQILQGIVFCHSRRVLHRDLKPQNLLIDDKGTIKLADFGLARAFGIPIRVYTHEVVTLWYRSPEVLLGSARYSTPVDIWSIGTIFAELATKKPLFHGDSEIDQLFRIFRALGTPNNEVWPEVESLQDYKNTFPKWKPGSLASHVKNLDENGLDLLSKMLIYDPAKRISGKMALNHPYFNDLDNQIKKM
compound,measurement,setting,value
O=C(N[C@@H](C1CC1)C(F)(F)F)c1cc(-c2cnn3cc(-c4ccc(F)cc4)cnc23)cs1,inhibition,[1],45%
same,fold change (FC),[2],0
same,inhibition,[3],0%
same,inhibition,[4],3%
same,fold change (FC),[5],0.04
CC(C)[C@H](NC(=O)c1cc(-c2cnn3cc(-c4ccc(OCCN5CCCCC5)cc4)cnc23)cs1)C(F)(F)F,fold change (FC),[6],0.02
same,inhibition,[7],67%
same,fold change (FC),[8],0
same,inhibition,[9],16%
same,inhibition,[10],0%
CNC(=O)c1ccccc1Oc1nc(Nc2cc(OC)c(OC)c(OC)c2)ncc1Br,inhibition,[11],8%
same,fold change (FC),[12],0.04
same,fold change (FC),[13],0
same,fold change (FC),[14],0.05
same,fold change (FC),[15],0
